Legend:
Assay type in all cases: physicochemical
[1] = Dissolution rate of tablets in FaSSIF v2 medium (small-scale dissolution assay, UV quantification, Noyes-Whitney fit); conditions: FaSSIF v2 (pH 6.5), 25° C.; for dissolution rate: 120 minutes, 3 mm tablet
Procedure: Molar extinction coefficients of VD2, VD3 and of the coformer were determined by UV-metric titration using a GIpKa™ titrator (Sirius Analytical Instruments, UK). Briefly, a 10 mM stock solution of sample was prepared in DMSO. 50 μL of sample stock solution and 0.25 mL of a 15 mM potassium phosphate buffer were added to 10 mL of a 0.15 M KCl solution, which in turn contained 17.9 mg of FaSSIF v2 powder. The pH of the sample solution was adjusted to 2 with 0.5 M HCl before starting the titration, and then the titration was done using 0.5 M KOH up to pH 12. The UV absorption spectra (between 250 and 450 nm) of the solution were recorded at each titrant addition by a fiber optic dip-probe. The collected data were refined through the RefinamentPro software, and the pKa values and Molar Extinction Coefficients obtained by Target Factor Analysis.
• Tablet production: tablets of 3 mm diameter were done using a manual hydraulic tablet press (Applied Measurements Ltd, UK). The applied pressure was 100 Kg for 2 min. From 6 to 10 mg of each solid form, vitamin or cocrystal, were weighted. The total exposed surface area was […]. • Medium: FaSSIF v2 (pH 6.5), with corresponding amount of phosphoric (28.4 mM) acid instead of maleic acid. • Dissolution tests were performed with a small-scale dissolution assay installed in a GIpKa™ titrator (Sirius Analytical Instruments, UK). • Dissolution time and temperature: 120 minutes and 25° C. • Procedure: 15 mL of FaSSIF v2 was added into the sample vial containing the tablet. Spectra collection started immediately after. Spectra were recorded every 30 seconds between 250 and 450 nm through a Sirius D-PAS spectrometer with a bifurcated optic fibre dip probe (Hellma Analytics). The medium was stirred at a constant rate.
The concentration of cholecalciferol (VD3) or ergocalciferol (VD2) in solution at each time point is determined from the spectroscopic data by applying the Beer-Lambert law, using previously determined molar extinction coefficients of the pure APIs and the coformers. Spectrum regions where signal is saturated (A>1.5) or presenting medium interferences were discarded. Then, the concentration data were converted into absolute sample quantities, and used to generate the graphs showing the sample quantity vs. time.
Dissolution rate is obtained through the fit of the first order Noyes-Whitney exponential equation to the data: […]
In this equation, [X]t is the weight in grams of compound in solution at the experiment time (min); S is the extrapolated solubility (g) of the vitamin; kd is the rate constant for dissolution (min^−1); and t0 (min) is a term allowing for a temporal offset. Results are calculated using a refinement process in which S, kd and t0 are varied in order to minimize the root mean square deviation between the modelled concentrations and the measured concentrations. The dissolution rate (g min^−1) is given by the product kdS (T. Gravestock et al., Anal. Methods, 2011, 3, 560).

[2] = Stability of VD2 vs VD2 cocrystals (beta-sitosterol, orcinol) under two stress conditions, solid form analysed periodically by PXRD; conditions: for stability under both stress conditions (in words): 25° C./57% RH and 40° C./75% RH
Procedure: The stability of the VD2 cocrystal with beta-sitosterol and VD2 cocrystal with orcinol was studied and compared to the stability of VD2 (Form A) under two stress conditions. The samples were stored under both stress conditions inside a Series FD Binder chamber and they were analyzed periodically by PXRD. The two stress conditions were the following: • condition A: 25° C. and 57% relative humidity; • condition B: 40° C. and 75% relative humidity.
A saturated solution of sodium bromide salt (for 57% RH) and a saturated solution of sodium chloride (for 75% RH) were used to control relative humidity.

[3] = Stability of VD3:resorcinol cocrystal vs commercial VD3 in a mineral-vitamin premix containing choline chloride (HPLC-MS)
Procedure: The stability of the VD3:resorcinol cocrystal mixed in a premix that was a standard mineral-vitamin mix containing choline was studied under normal and high environmental temperature/humidity and compared to the stability of commercial VD3 for animal nutrition (Orffa D3 500) in the same premix under de same conditions.
• 25° C. and 57% humidity (temperature controlled chambers with a saturated solution of NaBr to maintain humidity at 57%); • 40° C. and 75% humidity (temperature controlled chambers with a saturated solution of NaCl to maintain humidity at 75%).
The mineral mix was supplemented to contain 750,000 UI/kg Vitamin A, 5,000 mg/kg vitamin E and 12.5% choline chloride (choline chloride, vegetal coating, 60%). VD3 final content was 1,600,000 UI/Kg (both for the cocrystal VD3:resorcinol and for the commercial VD3.
Samples (2 g) were weighted in 50 mL plastic tubes and incubated in the experimental conditions (see above). Samples for each individual time were incubated in quadruplicates to account for potential variation. Samples were prepared to be retrieved from incubators at 2, 4, 8 and 12 weeks. After each time, samples were processed and analyzed immediately (no storage).
Samples were subjected to an extraction process done in the incubation tube with the full sample to avoid sub-sampling problems. Extracted supernatant was analysed for vitamin D using and HPLC (Model 1260 Series, Agilent, Darmstadr, Germany) coupled with a MS-QQQ (Model G6420, Agilent) against a calibrated curve using a standard vitamin D3. Results are reported as a percent degradation compared with the original Vitamin concentration.

[4] = Stability of VD3 vs VD3:orcinol cocrystal under stress conditions (40° C.-75% RH), solid form analysed periodically by PXRD
Procedure: The samples were stored under these conditions inside a Series FD Binder chamber and they were analyzed periodically by PXRD. A saturated solution of sodium chloride (75%) was used to control relative humidity.

[5] = 40° C./75% H, premix with choline chloride

C=C1CC[C@H](O)C/C1=C/C=C1\CCC[C@]2(C)[C@@H]([C@H](C)/C=C/[C@H](C)C(C)C)CC[C@@H]12 [VD2, ergocalciferol]
dissolution rate [1]: 0.74 ± 0.23 nmol/min | Solid form (PXRD) under stress conditions ([2]; 25° C.-57% RH, 0 days): Form A | Solid form (PXRD) under stress conditions ([2]; 25° C.-57% RH, 370 days): Amorphous phase | stability under both stress conditions (in words) [2]: very low stability | Solid form (PXRD) under stress conditions ([2]; 40° C.-75% RH, 0 days): Form A | Solid form (PXRD) under stress conditions ([2]; 40° C.-75% RH, 210 days): Liquid phase | time at which conversion into an amorphous phase started ([2]; both stress conditions): ≤ 25 days

C=C1CCC(O)CC1=CC=C1CCCC2(C)C1CCC2C(C)C=CC(C)C(C)C.C=C1CCC(O)CC1=CC=C1CCCC2(C)C1CCC2C(C)C=CC(C)C(C)C.CCC(CCC(C)C1CCC2C3CC=C4CC(O)CCC4(C)C3CCC12C)C(C)C (stereo not drawn) [VD2:beta-sitosterol]
time remained as the same starting solid form ([2]; 25° C. and 57% of relative humidity): ≥ 370 days | stability under both stress conditions (in words) [2]: very high stability | time remained as the same starting solid form ([2]; 40° C. and 75% of relative humidity): ≥ 25 days | Solid form (PXRD) under stress conditions ([2]; 40° C.-75% RH, 210 days): Amorphous | Solid form (PXRD) under stress conditions ([2]; 40° C.-75% RH, 370 days): Amorphous

C=C1CC[C@H](O)C/C1=C/C=C1\CCC[C@]2(C)[C@@H]([C@H](C)CCCC(C)C)CC[C@@H]12 [VD3, cholecalciferol, reference compound]
dissolution rate [1]: 0.58 ± 0.14 nmol/min | stability in premix, comparison of the two environmental conditions ([3]; 25° C./57% H vs 40° C./75% H): more stable at 25° C./57% H compared with 40° C./75% H | stability under stress conditions (in words) [4]: very low stability | time to conversion into a liquid phase [4]: five | Solid form (PXRD) under stress conditions ([4]; 0 days): Form A | Solid form (PXRD) under stress conditions ([4]; 5 days): liquid

C=C1CCC(O)CC1=CC=C1CCCC2(C)C1CCC2C(C)C=CC(C)C(C)C.C=C1CCC(O)CC1=CC=C1CCCC2(C)C1CCC2C(C)CCCC(C)C (centres unmarked) [VD3-VD2]
dissolution rate [1]: 0.63 ± 0.21 nmol/min

C=C1CCC(O)CC1=CC=C1CCCC2(C)C1CCC2C(C)CCCC(C)C.Oc1cccc(O)c1 (centres unmarked) [VD3-resorcinol]
dissolution speed compared with other solid forms [1]: dissolved faster than VD2, VD3, or VD2-VD3 | dissolution rate [1]: 0.94 ± 0.22 nmol/min | stability in premix compared with VD3 ([3]; 25° C./57% H, premix with choline chloride): more stable than VD3 | change of stability in premix [3, 5]: sharp reduction in stability | stability in premix compared with commercial VD3 [3, 5]: better performance than commercial VD3 | stability in premix compared with VD3 ([3]; both conditions (25° C./57% H and 40° C./75% H)): more stable than VD3

C=C1CCC(O)CC1=CC=C1CCCC2(C)C1CCC2C(C)CCCC(C)C.Cc1cc(O)cc(O)c1 (centres unmarked) [VD3:orcinol]
stability under stress conditions (in words) [4]: very high stability

Reference: patent publication US20230001012A1, “COCRYSTALS OF STEROID AND SECOSTEROID COMPOUNDS AND COMPOSITIONS COMPRISING THEM” (priority 2019, published 2023)
